# Measurements: article PMC6651387, “Fine-Tuning the Activation Mode of an 1,3-Indandione-Based Ruthenium(II)-Cymene Half-Sandwich Complex by Variation of Its Leaving Group” (Molecules, 2019)
# Where two headings read alike, the source gives them in different places.
# How the values were obtained:
# [1] = Lipophilicity by RP-UHPLC capacity factors (logkw, Φ0); format: physicochemical
# Excerpt: It stands to reason that the higher the lipophilicity, the higher the cell accumulation; as far as passive diffusion is concerned, the higher efficiency with which normal cell function is compromised. As a consequence, lipophilicity is an important factor in drug development, described by the partition coefficient logP, which is routinely determined by the distribution of a compound in 1-octanol/water. However, 1-octanol, a solvent said to closely mimic the solubilizing behavior of cell membranes, forms emulsions with water. Additionally, the shake-flask method, seemingly easy, requires long sample preparation, has a low sample throughput, and lacks reproducibility, as it hinges on exact temperature control and consistent equilibration time allotted for every analyte. The time-consuming nature of this method may also lead to decomposition of the analyte. A concentration-, flow rate-, and column length-independent method is the determination of the capacity factor (k) via HPLC. The capacity factor is a measure for the equilibrium concentration between a polar phase (eluent) and an apolar phase (C18 column coating) and higher resemblance to the partition coefficient in […]. […] The percentage of methanol in the eluent at which logk is equal to zero is Φ0 [27, 28, 29].
# The capacity factors k were determined with the use of an RP-UHPLC. The necessary chromatograms were recorded with a Dionex UltiMate 3000 RS UHPLC system (Thermo Fisher Scientific, Bedford, MA, USA) controlled by the Dionex Chromeleon 7.2 software. […] The capacity factors were then calculated as logk = log[(tR − t0)/t0], where tR and t0 are the retention times of the analyte and the dead time marker, respectively, at the respective MeOH:0.1% FA in water ratio. Every retention time was determined in isocratic mode for the different eluent ratios to obtain capacity factors in the linear range (−0.5 ≤ logk ≤ 1.5) in triplicate. A plot of logk against the % of the organic eluent yielded logkw (intercept) and S (slope). Φ0, the factor most closely resembling logP, was then determined as follows: Φ0 = −logkw/S [28].
# [2] = test system: CH1/PA-1 (ovarian teratocarcinoma) cells; test: MTT antiproliferative assay, CH1/PA-1; format: cell-based, human; conditions: exposure time 96 h, means ± standard deviations
# Description: CH1/PA-1 (ovarian teratocarcinoma) cells were a generous gift from Lloyd R. Kelland (CRC Centre for Cancer Therapeutics, Institute of Cancer Research, Sutton, UK). A549 (non-small cell lung cancer), SW480, and HCT116 (both colon cancer) cells were kindly provided by the Institute of Cancer Research, Department of Medicine I, Medical University of Vienna, Austria. All cell lines were grown as monolayer cultures in Eagle’s MEM supplemented with L-glutamine (4 mM), sodium pyruvate (1 mM) and 1% (v/v) non-essential amino acid solution (all from Sigma-Aldrich) and 10% (v/v) heat-inactivated fetal calf serum (FCS, BioWest) in 75-cm^2 flasks (Starlab) at 37 °C under a humidified atmosphere containing 5% CO2 in air.
# Antiproliferative activity of the compounds was determined with the colorimetric MTT assay (MTT = 3-(4,5-dimethyl-2-thiazolyl)-2,5-diphenyl-2H-tetrazolium bromide). CH1/PA-1, HCT116, SW480, and A549 cells with cell numbers of 1 × 10^3, 1.5 × 10^3, 2 × 10^3, and 3 × 10^3, respectively, were seeded in 100 μL per well into 96-well microculture plates (Starlab). After 24 h, test compounds were dissolved in DMSO (Fisher Scientific), serially diluted in complete MEM not to exceed a final DMSO content of 0.5% (v/v) and added in 100 μL per well. After 96 h, the drug-containing medium was replaced with 100 µL of RPMI 1640/MTT mixture, i. e., 6 parts of RPMI 1640 medium (Sigma-Aldrich; supplemented with 10% heat-inactivated fetal bovine serum and 4 mM L-glutamine), 1 part of MTT solution in phosphate-buffered saline (5 mg/mL; both from Sigma-Aldrich). After incubation for 4 h, the MTT-containing medium was replaced with 150 μL DMSO per well to dissolve the formazan product formed by viable cells. Optical densities at 550 nm (and at the reference wavelength of 690 nm) were measured with a microplate reader (ELx808, Bio-Tek). The IC50 values relative to untreated controls were interpolated from concentration–effect curves. At least three independent experiments were performed, each with triplicates per concentration level.
# [3] = MeOH, conventional desk lamp, UV-VIS 250–700 nm
# Description: Light activation studies were performed on the same UV-VIS spectrometer. Fourty microliters of solutions (MeOH) were irradiated with a conventional desk lamp, and every 2.5–10 min (depending on progress) a wavelength scan (250–700 nm) was recorded.
# [4] = test system: SW480 (colon cancer) cells; test: MTT antiproliferative assay, SW480; format: cell-based, human; conditions: exposure time 96 h, means ± standard deviations
# Description: (§1) CH1/PA-1 (ovarian teratocarcinoma) cells were a generous gift from Lloyd R. Kelland (CRC Centre for Cancer Therapeutics, Institute of Cancer Research, Sutton, UK). A549 (non-small cell lung cancer), SW480, and HCT116 (both colon cancer) cells were kindly provided by the Institute of Cancer Research, Department of Medicine I, Medical University of Vienna, Austria. All cell lines were grown as monolayer cultures in Eagle’s MEM supplemented with L-glutamine (4 mM), sodium pyruvate (1 mM) and 1% (v/v) non-essential amino acid solution (all from Sigma-Aldrich) and 10% (v/v) heat-inactivated fetal calf serum (FCS, BioWest) in 75-cm^2 flasks (Starlab) at 37 °C under a humidified atmosphere containing 5% CO2 in air. […] After 24 h, test compounds were dissolved in DMSO (Fisher Scientific), serially diluted in complete MEM not to exceed a final DMSO content of 0.5% (v/v) and added in 100 μL per well. After 96 h, the drug-containing medium was replaced with 100 µL of RPMI 1640/MTT mixture, i. e., 6 parts of RPMI 1640 medium (Sigma-Aldrich; supplemented with 10% heat-inactivated fetal bovine serum and 4 mM L-glutamine), 1 part of MTT solution in phosphate-buffered saline (5 mg/mL; both from Sigma-Aldrich). After incubation for 4 h, the MTT-containing medium was replaced with 150 μL DMSO per well to dissolve the formazan product formed by viable cells. Optical densities at 550 nm (and at the reference wavelength of 690 nm) were measured with a microplate reader (ELx808, Bio-Tek). The IC50 values relative to untreated controls were interpolated from concentration–effect curves. At least three independent experiments were performed, each with triplicates per concentration level.
# [5] = test system: HCT116 (colon cancer) cells; test: MTT antiproliferative assay, HCT116; format: cell-based, human; conditions: exposure time 96 h, means ± standard deviations
# Description: as §1
# [6] = test system: SW480 cells; test: Cellular accumulation by ICP-MS quantification of ruthenium (or platinum); format: cell-based, human; conditions: 50 µM, exposure time 2 h, ICP-MS of ruthenium
# Description: Ruthenium accumulation was measured by means of inductively coupled plasma mass spectrometry (ICP-MS) upon 2 h exposure of SW480 cells to 50 µM of each compound.
# Cellular accumulation of the compounds was studied based on a previously described method with modifications as follows: SW480 cells with a number of 1.8 × 10^5 per well were seeded into 12-well plates in aliquots of 1 mL complete MEM and incubated at 37 °C for 24 h. Then, cells were exposed for 2 h at 37 °C to 50 μM solutions of the test compounds (containing 0.5% DMSO) in 500 µL of fresh complete MEM upon exchange of the medium. Afterwards, cells were washed three times with PBS, and lyzed with 0.4 mL sub-boiled HNO3 per well for 1 h at room temperature. Ruthenium content was quantified by ICP-MS using an Agilent 7500ce quadrupole ICP-MS instrument (Agilent Technologies, Waldbronn, Germany) equipped with a CETAC ASX-520 autosampler (Nebraska, USA) and a MicroMist nebulizer. Ruthenium and indium standards were obtained from CPI International (Amsterdam, The Netherlands). The instrument was equipped with nickel cones and operated at an RF power of 1560 W, with argon as the plasma gas (15 L/min), carrier gas (1.0–1.1 L/min) and make-up gas (0.1–0.2 L/min). The Agilent MassHunter software package (Workstation Software, Version B.01.01, Build 123.11, Patch 4, 2012) was used for data processing. Results are based on at least three independent experiments, each comprising triplicate samples. The instrument was tuned on a daily basis for maximum sensitivity and doubly charged species as well as oxide rates were <5%.
# [7] = test system: A549 (non-small cell lung cancer) cells; test: MTT antiproliferative assay, A549; format: cell-based, human; conditions: exposure time 96 h, means ± standard deviations
# Description: as §1
# [8] = test system: SW480 cells; parameters: method as in PMID 27055943; conditions: exposure time 2 h, platinum; cited from earlier work
# [9] = test system: SW480 (colon cancer) cells; parameters: method as in PMID 25032896; conditions: MTT assay, 96 h; cited from earlier work
# [10] = test system: A549 (non-small cell lung cancer) cells; parameters: method as in PMID 25032896; conditions: MTT assay, 96 h; cited from earlier work
# [11] = test system: CH1/PA-1 (ovarian teratocarcinoma) cells; parameters: method as in PMID 25032896; conditions: MTT assay, 96 h; cited from earlier work
SMILES,"Intercept logkw ([1]; RP-UHPLC, MeOH/0.1% formic acid in water, 25 °C, logk extrapolated to 100% water)","Φ0 ([1]; percentage of methanol in the eluent at which logk is zero, Φ0 = −logkw/S)",Slope S ([1]; slope of logk against % organic eluent (MeOH)),IC50 [2],time until no more change upon light irradiation (completion of the reaction) [3],IC50 [4],IC50 [5],"cellular accumulation, fg Ru or Pt/Cell [6]",IC50 [7],"cellular accumulation, fg Ru or Pt/Cell [8]",IC50 [9],IC50 [10],IC50 [11]
Cc1ccc(C(C)C)cc1.F[P-](F)(F)(F)(F)F.O=C1C(=C(NCc2ccccc2)[O][Ru+])C(=O)c2ccccc21.c1ccncc1 [1f],5.25,62.07,−0.0845,8.2 ± 2 µM,75 min,6.3 ± 1.1 µM,20.2 ± 6.4 µM,231 ± 93 fg Ru or Pt/Cell,22.1 ± 3.2 µM,,,,
N.N.[Cl][Pt][Cl] [Cisplatin],,,,,,,,,,12 ± 2 fg Ru or Pt/Cell,3.3 ± 0.2 µM,6.2 ± 1.2 µM,0.077 ± 0.006 µM
